Legend:
CpKRS [1] = molecular target: T1, CpKRS (Cryptosporidium parvum, UniProt Q5CR27); test: CpKRS SAR assay, luciferase ATP consumption (Kinase-Glo); assay type: biochemical
Description: We produced recombinant PfKRS1 (77–583 and 80–583), CpKRS (46-end), and HsKRS (full-length) proteins and developed biochemical assays based on the luciferase ATP consumption assay (Kinase-Glo; Promega) ([16]), which was suitable for the high-throughput screening, and the pyrophosphate generation assay (EnzChek) ([17]) format for kinetic characterization of the enzymes. The activities of recombinant enzymes were analyzed by monitoring only the first stage of the aminoacylation reaction. This reaction is suitable for high-throughput screening campaigns and makes the reaction more amenable for steady-state kinetic studies. By using the EnzChek assay, which monitors the production of pyrophosphate (when coupled with pyrophosphatase), Km values were obtained for PfKRS1, CpKRS, and HsKRS for ATP and L-lysine (Table 1 and SI Appendix, Fig. S1 and Table S1). […] This may be due to structural differences (see below) between the active sites of the parasite and human enzymes. […]
2.7 PfKR S1, CpKRS and HsKR S S AR Ass ay Usin g L ucife r ase ATP C onsumption ( Kinase Glo ®) Inhi bi ti on of KRS acti vity by cl adospori n and other compou nds was assayed i n t he buffered me di um.
Each as s ay w el l was compos ed of b uffer (as des cri bed i n Ta bl e S3), 10 µM l ysi ne and ei ther 8.1 nM PfKRS1, 8.1 nM CpKRS or 6.6 nM HsKRS. […] The react i on w a s initiated by the addition of 2 µM ATP. The plate was incubated with shaking at 90 rpm and 30°C for 120 mi n. […] Maximum and minimum signal controls were included in each reaction plate. […] Analysis and calculation of inhibitors IC50 values were performed using Graphpad® Prism software (GraphPad S oftware, San Diego, CA). […]

[2] = system: Plasmodium falciparum 3D7; test: P. falciparum 3D7 growth inhibition (SYBR green I); assay type: cell-based; conditions: for EC50: Plasmodium falciparum, P. falciparum 3D7 bloodstream, read-out: Pf(3D7) EC50
Source text: 3.2 Cytotoxicity Studies (Dundee)
In vi t ro cy totox i ci ty s tudies can be ca rri ed out us i ng Hep G 2 (Human C aucas i an hepatocy te ca rci noma, ECACC cat. no. 850 114 30) us ed as i ndi cators f or g eneral mammal i an cel l tox i ci ty . […]
3.3 In vitro Cell Assay D ata Analysis (Du ndee) […]
as 0%. Qual i ty control c ri teri a for passi ng pl ates were as fol l ow s : Z’ > 0.
< 15 . T he f ormula used to calculate Z’ is 1- 3´ (St D e v _ hi gh + St D e v_ low) . […]
Al l EC50 Curve fitti ng was undertaken usi ng XLFi t versi on 4.2 usi ng Model 205 wi th the foll owi ng 4 paramet ri c equat i on: A + (?-A) ,where A=% i nhi bi ti on at bo ttom, B=% i nhi bi ti on at top, C= EC , […]
D= slope, x= inhibitor concentration a nd y= % inhibition. […]
was fixed to 100 only when at least 50% of inhibition was reached.

CpKRS [3] = molecular target: T1, CpKRS; test: Recombinant KRS thermal shift assay, CpKRS; assay type: binding; conditions: 40 µM inhibitor
Description: 2.9 Recombin ant KR S thermal shift assays ( UW)
Recombi nant PfKRS1, CpKRS, and HsKRS were di l u ted to 4 µM in assay buffe r c ontaining 20 mM Tris-HC l pH 8, 200 mM NaC l , 5 mM DTT, 5 mM MgC l2 and l i gands (1 mM lysi ne; 40 µM ATP; and 40 µM inhibitors) in various combinations. Ali quot s (10 µl) were added to a 96-well PCR plate and incubated at ambi ent temperature for 15 mi n. SYPRO® Ora n g e dye (I nv itrog en) was di l uted i n ass ay buffer to a 5x concent rat i on a nd 1 0 µl was added to t he P C R pl at e t o bri ng t he fi nal as s ay v ol ume t o 20 µl. The pl at e w as s eal ed and pul s e cent ri fug ed t o cons ol i dat e t he as s ay mix t ure and remov e ai r bu bbl es .
Us i ng a StepOne Pl us RT-PCR thermal cycler (Ap plied Biosystems) to monitor fluorescence at a n excitation/emission wavelength of 300/470-570 nm, the samples were heated from 25° C to 99° C at a ramp rate of .016° C/sec. Graphpa d® P rism software (GraphPad S oftware, San Diego, CA) was used to determine melting temperatures (Tm) us i ng Bol tzmann s i g moi dal analys is .
Table S3. Thermal shift data for compounds with P fKRS1, Cp KRS a nd Hs KRS.
Com poun d Eff ects o n Lys R S M elti ng Tem pe ratu re ( ∆Tm) […]

T1 sequence (Q5CR27 entry or part of it): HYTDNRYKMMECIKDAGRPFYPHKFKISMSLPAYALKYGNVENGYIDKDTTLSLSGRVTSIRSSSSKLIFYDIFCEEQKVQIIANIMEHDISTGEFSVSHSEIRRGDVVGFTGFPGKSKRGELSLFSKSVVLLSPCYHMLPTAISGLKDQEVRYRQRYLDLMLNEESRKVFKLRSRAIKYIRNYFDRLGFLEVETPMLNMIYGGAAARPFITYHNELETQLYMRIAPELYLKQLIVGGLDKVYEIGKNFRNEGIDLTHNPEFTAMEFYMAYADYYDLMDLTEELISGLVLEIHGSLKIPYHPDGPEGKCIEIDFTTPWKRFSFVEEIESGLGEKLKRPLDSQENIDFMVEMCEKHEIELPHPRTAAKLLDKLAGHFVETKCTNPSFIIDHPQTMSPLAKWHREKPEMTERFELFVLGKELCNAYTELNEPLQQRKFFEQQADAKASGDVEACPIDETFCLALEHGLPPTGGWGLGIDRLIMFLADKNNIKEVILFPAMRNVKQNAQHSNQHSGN

For `O=C(NCC1(O)CCCCC1)c1cc(=O)c2cc(F)ccc2o1` [Compound 4], the IC50 (CpKRS [1]) was 8 nM, the EC50 [2] was 180 nM and the ΔTm at 40 µM (CpKRS [3]; ATP + Lysine) was 11.8 °C. It also gave a ΔTm at 40 µM (CpKRS [3]; ATP) of 0 °C, a ΔTm at 40 µM (CpKRS [3]; Lysine) of 18.4 °C and a ΔTm at 40 µM (CpKRS [3]; no substrate) of -0.2 °C.
In the case of `O=C(NCC1(O)CCC(F)(F)CC1)c1cc(=O)c2cc(F)ccc2o1` [Compound 5], the IC50 (CpKRS [1]) is reported as 130 nM, the “cellular selectivity between P. falciparum parasites and human HepG2 cells” value [2] is reported as 180 fold and the EC50 [2] is reported as 270 nM. The ΔTm at 40 µM (CpKRS [3]; ATP + Lysine) was 13 °C, the ΔTm at 40 µM (CpKRS [3]; ATP) was -0.2 °C and the ΔTm at 40 µM (CpKRS [3]; Lysine) was 14.7 °C. It also gave a ΔTm at 40 µM (CpKRS [3]; no substrate) of -0.5 °C.
Molecule `O=C(NCC1CCCCC1)c1cc(=O)c2ccccc2o1` [Compound 2] has an IC50 (CpKRS [1]) of 22 nM, an EC50 [2] of 190 nM and a ΔTm at 40 µM (CpKRS [3]; ATP + Lysine) of 11.7 °C. The ΔTm at 40 µM (CpKRS [3]; ATP) was 0.7 °C, the ΔTm at 40 µM (CpKRS [3]; Lysine) was 19.3 °C and the ΔTm at 40 µM (CpKRS [3]; no substrate) was 0 °C.
`O=C(NCC1CCCCC1)c1cc(=O)c2cc(F)ccc2o1` [Compound 3] gave an IC50 (CpKRS [1]) of 39 nM, an EC50 [2] of 290 nM and a ΔTm at 40 µM (CpKRS [3]; ATP + Lysine) of 0.8 °C. The ΔTm at 40 µM (CpKRS [3]; ATP) was 0.2 °C, the ΔTm at 40 µM (CpKRS [3]; Lysine) was 1.2 °C and the ΔTm at 40 µM (CpKRS [3]; no substrate) was -0.2 °C.
Molecule `C[C@H]1CCC[C@H](C[C@H]2Cc3cc(O)cc(O)c3C(=O)O2)O1` [Compound 1, cladosporin, reference compound] has an IC50 (CpKRS [1]) of 38 nM, an EC50 [2] of 73 nM and a ΔTm at 40 µM (CpKRS [3]; ATP + Lysine) of 14 °C. For the same molecule, the ΔTm at 40 µM (CpKRS [3]; ATP) was 0.1 °C, the ΔTm at 40 µM (CpKRS [3]; Lysine) was 19.5 °C and the ΔTm at 40 µM (CpKRS [3]; no substrate) was -0.1 °C.

From article PMC6452685, “Lysyl-tRNA synthetase as a drug target in malaria and cryptosporidiosis” (Proceedings of the National Academy of Sciences of the …, 2019)
